These are literature values, as cited in patent publication US20090105222A1, “PREVENTION AND TREATMENT OF […] DISORDERS, INCLUDING STRESS-RELATED DISORDERS” (Cypress Bioscience, Inc., priority 2002, published 2009).

Structures are written as SMILES.

This data set deals with NMDA receptor. As to conditions: reported in literature (Shuto et al.); read-out: IC50 value, NMDA receptor antagonistic properties.

As to `CCN(CC)C(=O)C1(c2ccccc2)CC1CN` (stereo not shown) [milnacipran], the IC50 was around 6.3 µM.
